Assay results taken from patent publication US11267791B2 (F.I.S.—FABBRICA ITALIANA SINTETICI S.P.A., priority 2018, dated 2022).
Structures can show the parent of a compound that is named as a salt.

Columns and labels:
[1] = cited from earlier work
[2] = Hygroscopicity study by DVS (Dynamic Vapour Sorption); type: physicochemical; settings: 25° C.; for humidity adsorbed (water uptake) / hygroscopicity (water uptake): at 95% RH
Procedure: Hygroscopicity study was determined by DVS (Dynamic Vapour Sorption) with a Q5000 TA instrument. This is a gravimetric technique that measures how much water is absorbed or desorbed by a sample at different relative humidity (RH). At each RH, the sample mass must be allowed to reach gravimetric equilibrium (or surpassed time limit) before progressing to the next humidity level. Sorption and desorption isotherms were performed at 25° C. over a range of 0-95% RH. The samples gently milled were not previously dried but they were exposed to 0% RH until a stable weight was reached before starting the DVS cycle. This equilibration step allows possible adsorbed humidity to be eliminated.

[3] = Stability study of Form E, atmospheric and ICH accelerated conditions, XRPD; type: physicochemical; settings: after 1 day of exposition
Procedure: In the first ETP monoethanolamine salt Form E was exposed to atmospheric conditions for 1 day was unstable, and a new form very similar to Form II (ETP bisethanolamine salt) described in U.S. Pat. No. 8,372,822B2 was recovered according to XRPD analysis. In the second ETP monoethanolamine salt Form E was exposed to ICH guideline accelerated conditions (40° C./75 RH %). Under these conditions, Form E converted partially to a new unknown form.

[4] = Crystalline stability of Form D1 under accelerated ICH guideline conditions, XRPD; type: physicochemical
Excerpt: This sample was periodically analysed by XRPD in order to observe possible crystalline transformation or amorphization. Moreover, a sample of ETP monoethanolamine salt Form D1 stored on a XRPD silicon holder was exposed in a climatic chamber. It is worth noting that these stability conditions are harsher than standard stability conditions due to the high surface of exposition of the solid stored on the XRPD silicon holder. The samples were periodically analysed by XRPD to observe possible crystalline transformation.

[5] = Preliminary stability in water at RT, slurry analysed by XRPD; type: physicochemical; settings: XRPD at 1, 3, 6 and 24 h
Procedure: A preliminary test stability study in water at RT of 4 ETP monoethanolamine salt Forms was performed in order to observed possible crystalline transitions. A sample of each crystalline form was slurried in water at RT and periodically analysed by XRPD (1, 3, 6 and 24 h) in order to detect possible crystalline transformation.

[6] = Relative thermodynamic solubility in water at RT by HPLC; type: physicochemical
Procedure: The relative solubility of the above mentioned 4 ETP monoethanolamine salt Forms was studied in water at RT. The validity of any solubility measurement requires that the crystalline form must remain stable with respect to any phase conversion taking place during the determination of the equilibrium solubility.
This suspension was stirred 24 h at RT in order to reach the equilibrium. Then, a sample was filtered and the resulting filtrate was analysed by HPLC by duplicate. The average peak area of ETP gave a relative value of the thermodynamic solubility of each form that can be compared with each other. The solids recovered after filtration were also analysed by XRPD to check that no crystalline phase transformation occurred during the slurring.
HPLC ETP peak area in each of the different forms analysed was measured in order to establish their relative solubility. The HPLC analyses were performed by duplicate for each ETP monoethanolamine salt.

CC1=NN(c2ccc(C)c(C)c2)C(=O)/C1=N\Nc1cccc(-c2cccc(C(=O)O)c2)c1O [Eltrombopag olamine, Eltrombopag bisethanolamine salt]
thermally stable up to ([1]; at higher temperature endothermic reaction associated with degradation): about 125 °C | solubility in water [1]: sparingly soluble

Eltrombopag monoethanolamine salt [Form D]
hygroscopicity in words ([2]; up to 85% RH, listed as ETP monoethanolamine salt Form D): not hygroscopic

Eltrombopag monoethanolamine salt [Form E]
result of stability study, crystalline form by XRPD ([3]; 40° C./75 RH %, ICH accelerated): partial conversion to a new form with a main peak at 8.6° (2θ) | result of stability study, crystalline form by XRPD ([3]; atmospheric conditions): Form II+one peak at 8.6° (2θ)

CC1=NN(c2ccc(C)c(C)c2)C(=O)/C1=N\Nc1cccc(-c2cccc(C(=O)O)c2)c1O [Form D1, Eltrombopag monoethanolamine salt]
crystalline stability in words ([4]; 2 months study period): remained stable | period the crystalline form remains stable ([4]; T=40° C./75±5% RH (chamber 45±2° C.-75±5% RH)): at least 2 months | crystalline stability slurried in water [5]: remained stable | humidity adsorbed (water uptake) [2]: less than 0.2 % w/w | Intensity test average ([6]; average of solubility tests #1 and #2, HPLC ETP peak area): 2911 | Solubility test #1 (area counts) ([6]; saturated water solution, 24 h at RT, HPLC ETP peak area): 2722 area counts | Solubility test #2 (area counts) ([6]; saturated water solution, 24 h at RT, HPLC ETP peak area, repeat): 3100 area counts

Eltrombopag monoethanolamine salt [Form H]
crystalline stability slurried in water [5]: remained stable | humidity adsorbed (water uptake) [2]: up to 1.4 % w/w | hygroscopicity (water uptake) [2]: 1.4 w/w

Eltrombopag monoethanolamine salt [Form H2]
hygroscopicity (water uptake) ([2]; listed as ETP monoethanolamine salt Form H2): 0.6 w/w
